Data on three compounds can be found in PubChem BioAssay AID651797 (The Scripps Research Institute Molecular Screening Center, 2012).

Active and inactive are the calls of the source. No rule for the calls is given here.

The test has as its target Nuclear receptor coactivator 3 (Homo sapiens) (UniProt Q9Y6Q9). The experiment in a line: SRC3 (NCOA3) coactivator inhibitors, late-stage follow-up, selectivity assay for SRC1 inhibitor project, cell-based, luminescence reporter (AID 651797). As to conditions: human cells, dose response.

Chain of Nuclear receptor coactivator 3 (Homo sapiens) (Q9Y6Q9 whole entry, looked up): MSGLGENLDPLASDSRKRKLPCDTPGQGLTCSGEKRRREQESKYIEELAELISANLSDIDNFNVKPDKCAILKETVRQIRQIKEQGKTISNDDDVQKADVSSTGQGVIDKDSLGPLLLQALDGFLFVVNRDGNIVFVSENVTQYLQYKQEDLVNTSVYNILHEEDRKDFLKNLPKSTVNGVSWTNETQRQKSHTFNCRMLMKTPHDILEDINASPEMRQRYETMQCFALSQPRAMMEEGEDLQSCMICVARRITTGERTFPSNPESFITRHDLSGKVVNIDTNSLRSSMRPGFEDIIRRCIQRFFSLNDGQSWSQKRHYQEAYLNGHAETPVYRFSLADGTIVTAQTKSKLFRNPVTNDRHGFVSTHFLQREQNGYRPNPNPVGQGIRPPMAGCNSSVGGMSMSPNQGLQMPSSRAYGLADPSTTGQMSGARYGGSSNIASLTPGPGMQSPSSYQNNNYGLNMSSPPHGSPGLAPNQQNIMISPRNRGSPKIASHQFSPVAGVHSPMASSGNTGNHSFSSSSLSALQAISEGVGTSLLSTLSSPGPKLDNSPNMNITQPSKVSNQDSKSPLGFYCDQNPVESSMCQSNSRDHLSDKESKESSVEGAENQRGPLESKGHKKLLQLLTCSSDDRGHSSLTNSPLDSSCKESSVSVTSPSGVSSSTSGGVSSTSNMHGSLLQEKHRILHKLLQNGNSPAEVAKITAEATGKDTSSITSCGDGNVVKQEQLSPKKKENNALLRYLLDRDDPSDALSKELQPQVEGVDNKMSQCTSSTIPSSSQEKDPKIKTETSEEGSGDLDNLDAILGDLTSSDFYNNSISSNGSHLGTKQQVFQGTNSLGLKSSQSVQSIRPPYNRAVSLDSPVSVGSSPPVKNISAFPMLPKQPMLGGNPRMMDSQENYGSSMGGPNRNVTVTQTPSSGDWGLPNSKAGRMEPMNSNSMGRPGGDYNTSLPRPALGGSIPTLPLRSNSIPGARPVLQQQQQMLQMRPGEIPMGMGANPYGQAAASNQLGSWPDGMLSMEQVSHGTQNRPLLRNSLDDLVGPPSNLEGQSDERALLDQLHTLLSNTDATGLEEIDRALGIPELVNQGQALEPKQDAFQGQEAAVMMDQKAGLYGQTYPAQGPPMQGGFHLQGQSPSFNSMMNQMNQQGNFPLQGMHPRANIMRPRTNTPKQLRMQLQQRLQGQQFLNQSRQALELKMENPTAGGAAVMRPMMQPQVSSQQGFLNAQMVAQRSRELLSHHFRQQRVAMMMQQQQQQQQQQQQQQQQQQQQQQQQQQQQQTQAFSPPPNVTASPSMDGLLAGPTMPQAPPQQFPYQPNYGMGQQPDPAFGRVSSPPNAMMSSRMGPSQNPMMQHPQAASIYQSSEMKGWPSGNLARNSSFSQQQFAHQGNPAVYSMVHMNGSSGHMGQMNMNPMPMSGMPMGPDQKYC

A word on the IC50: it is the concentration that inhibits the measured activity by half. `COc1cc([C@@H]2c3cc4c(cc3C(OC3OC5COC(C)OC5C(O)C3O)C3COC(=O)[C@@H]32)OCO4)cc(OC)c1O` (stereo partly drawn): the half-maximal inhibitory concentration (IC50) was 0.69 µM. Regarding `COc1ccc(Nc2ncnc3ccc(Br)cc23)c(OC)c1`, the IC50 result was “inactive”. To `COc1ccc(NC(=O)CN(C)C(=O)C2(c3ccccc3)CCCC2)cc1` belongs 8.22 µM.
